Test results taken from article PMC9849758, “Chemically diverse activity-based probes with unexpected inhibitory mechanisms targeting trypsin-like serine proteases” (Frontiers in Chemistry, 2023).
Entries after “also recorded” stand apart in the source; their conditions may differ.

Assays:
Format in all cases: biochemical
uPA [1] = target: T1, uPA (Homo sapiens, UniProt P00749); assay: Jump dilution, determination of inhibition type; settings: inhibitor at 10 times IC50, 15 min, diluted 10-fold or 100-fold; Rev./Irrev.
T1 construct: purchased HYPHEN BioMed
Procedure: (§1) The dissociation of the enzyme-inhibitor complex was monitored by substrate hydrolysis over time ([Joossens et al., 2006]).
(§2) Because ABPs are designed to be irreversible serine protease inhibitors, the IC50 is exclusively used as a first discriminatory evaluation. When an inhibitor is irreversible, its IC50 value not only depends on the substrate and enzyme concentration but also on the time of incubation with the enzyme before the reaction is started by adding the substrate. […] The progress curve in the presence of an irreversible inhibitor will show final velocities equal to zero (Figure 6C). In contrast, for a reversible inhibitor, progress curves have a non-zero final steady-state velocity (Figure 6A) ([McWhirter, 2021]). To corroborate the inhibitory mechanism of the compounds, jump-dilution assays were performed. These use an inhibitor concentration of 10-fold the IC50 for the incubation, and a posteriori, the reaction mixture is diluted 10-fold or 100-fold before adding the substrate. In the case of an irreversible inhibitor, enzymatic activity is not regained (Figure 6D), whereas, in the case of a reversible compound, a slow release of the inhibitor and a gradual increase of the enzymatic activity rate is observed (Figure 6B) ([Copeland, 2013]; [McWhirter, 2021]). The jump-dilution assays confirmed the behavior described by the progress curves.
(§3) 2.2.2 Jump dilution results
(§4) Supplementary Table 2. Jump dilution of selected alkyne and desthiobiotin probes against a panel of trypsin-like serine proteases. […]
(§5) # R R DtBa 3 tryptase Thrombin uPA CatG
(§6) 32b H Alk Irrev. Irrev. Rev. Irrev. Rev.
(§7) 45b DtB Irrev. Irrev. Rev. N.D. N.D.
(§8) 33b Alk Irrev. Irrev. Rev. Irrev. Rev.
(§9) 46b Cl DtB Irrev. Irrev. Rev. N.D. N.D.
(§10) 34b H Alk Rev. Rev. Rev. Irrev. Rev.
(§11) 50b DtB Rev. Rev. Rev. Irrev. Rev.
(§12) 35b Alk Rev. Rev. Rev. Irrev. Rev.
(§13) 52b NHCOMe DtB Rev. Rev. Rev. Irrev. Rev.
(§14) 36b Alk Rev. Rev. Rev. Irrev. Rev.
(§15) 54b Cl DtB Rev. Rev. Rev. Irrev. Rev.
(§16) 37b Alk Irrev. Irrev. N.D. Irrev. Irrev.
(§17) 55b H DtB Irrev. Irrev. N.D. Irrev. Irrev.
(§18) 38b Alk Irrev. Irrev. N.D. Irrev. Irrev.
(§19) 56b NHCOMe DtB Irrev. Irrev. N.D. Irrev. Irrev.
(§20) 39b Alk Irrev. Irrev. N.D. Irrev. Rev.
(§21) 57b Cl DtB Irrev. Irrev. N.D. Irrev. Rev.
(§22) 41b H Alk Irrev. Irrev. Irrev. N.D. N.D.
(§23) 31b Pro-Lys H Alk Irrev. Irrev. Irrev. Irrev. N.D. a Alk: ABP precursor bearing an alkyne; DtB: desthiobiotin probe b Panel of serine proteases abbreviations: urokinase plasminogen activator (uPA), cathepsin G (catG) N.D.: IC50 is greater than 10µM, and jump dilution was not performed
(§24) 2.2.3 Progress curves and Jump dilution experiments
(§25) Kinetic assays were performed in the following manner. The inhibitor was mixed with the substrate, and the buffer solution with the enzyme was added at the time zero. The progress curves show the release of para-nitroaniline (pNA) or 7-amino-4-methyl coumarin (AMC) as a function of time.
(§26) To monitor the dissociation of the inhibitor-enzyme, aliquots of the enzyme were incubated at 37 °C without and with the inhibitor at a concentration 10 times higher than its IC 50. The enzyme […]
(§27) min, the aliquots were diluted 10-fold or 100-fold into the substrate concentration and assay buffer used for the IC50 determination. The dissociation of the enzyme-inhibitor complex was monitored by substrate hydrolysis over time. Blue lines represent the control where no inhibitor was present. Pink lines represent the assay with inhibitor.

uPA [2] = target: T1, uPA; assay: Kinetic progress curves (kapp, mechanism); settings: for uPA kapp: apparent second-order rate constant from progress curves, mean ± SD; for uPA mechanism of inhibition: defined by the progress curves: slow-binding (Rev.) or irreversible (Irrev.)
Procedure: (§28) Because the compounds described in this paper were previously described as irreversible inhibitors, the IC50 value is inversely correlated with the second-order rate constant of inactivation. For a simple pseudo-first-order inactivation process, the activity after incubation with inhibitor (vi) varies with the inhibitor concentration (i), as described in the following equation: vi=v0·e^−kit where v0 is the activity in the absence of an inhibitor, k is the second-order rate constant of inactivation, and t is the time. The inactivation rate constant was determined from the time course of inhibition.
(§29) Kinetic assays were performed in the following manner. The inhibitor was mixed with the substrate, and the buffer solution with the enzyme was added at the time zero. The progress curves show the release of pNA or AMC as a function of time. Initially, no inhibitor is bound to the enzyme, and the tangent to the progress curve (dA/dt) is proportional to the free enzyme concentration. The free enzyme concentration decreases over time due to inhibitor binding kinetics, as described above. Progress curves were recorded in pseudo-first-order conditions ([I]0>>[E]0) and with less than 10% conversion of the substrate during the entire time course. In these conditions, dA/dt decreases exponentially with time. The progress curves were fitted with the integrated rate equation with GraFit7 to yield a value for kobs, a pseudo-first-order rate constant. At=Ao+vs∙t+vi−vs∙1−e^−kobs∙t/kobs where At is the absorbance at time t, A0 is the absorbance at time zero, vi is the initial rate and vs is the velocity at the steady-state.
(§30) The apparent second-order rate constant (kapp) was calculated from the slope of the linear part of the plot of kobs vs. the inhibitor concentration ([I]0). In the case of competition between the inhibitor and the substrate, kapp is smaller than the “real” second-order rate constant k discussed above because a certain fraction of the enzyme is present as an enzyme-substrate complex. kapp depends on the substrate concentration used in the experiment, as described by [Lambeir et al. (1996)].
(§31) The apparent equilibrium constants were obtained from the following equations, vi/vo=1/1+I/K1; vS/vo=1/1+I/KI* where vi is the initial rate, vs is the steady-state velocity and vo is the uninhibited initial rate.

Trypsin-3 = target: T2, Trypsin-3 (Homo sapiens, UniProt P35030); assay: Jump dilution, determination of inhibition type; design: purchased R&D; settings: inhibitor at 10 times IC50, 15 min, diluted 10-fold or 100-fold; Rev./Irrev.
T2 sequence (P35030 1-304): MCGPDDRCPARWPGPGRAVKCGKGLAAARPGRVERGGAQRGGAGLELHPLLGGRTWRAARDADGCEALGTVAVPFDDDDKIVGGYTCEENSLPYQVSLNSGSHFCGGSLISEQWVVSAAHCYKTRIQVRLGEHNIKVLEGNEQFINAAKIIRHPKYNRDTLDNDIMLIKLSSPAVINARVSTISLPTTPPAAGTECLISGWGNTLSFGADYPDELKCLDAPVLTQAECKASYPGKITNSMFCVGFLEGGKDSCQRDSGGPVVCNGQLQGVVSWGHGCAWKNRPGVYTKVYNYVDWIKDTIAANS
Procedure: as §1, §2, §3, §4, §5, §6, §7, §8, §9, §10, §11, §12, §13, §14, §15, §16, §17, §18, §19, §20, §21, §22, §23, §24, §25, §26, §27

β-tryptase = β-tryptase (Homo sapiens, UniProt P20231); assay: Kinetic progress curves (kapp, K1, KI*, mechanism); design: purchased EnzoLife Sciences; settings: for β-tryptase kapp: apparent second-order rate constant from progress curves; for β-tryptase kapp / Ki: mean ± SD; for β-tryptase mechanism of inhibition: defined by the progress curves: slow-binding (Rev.) or irreversible (Irrev.)
Sequence of β-tryptase (P20231 31-275): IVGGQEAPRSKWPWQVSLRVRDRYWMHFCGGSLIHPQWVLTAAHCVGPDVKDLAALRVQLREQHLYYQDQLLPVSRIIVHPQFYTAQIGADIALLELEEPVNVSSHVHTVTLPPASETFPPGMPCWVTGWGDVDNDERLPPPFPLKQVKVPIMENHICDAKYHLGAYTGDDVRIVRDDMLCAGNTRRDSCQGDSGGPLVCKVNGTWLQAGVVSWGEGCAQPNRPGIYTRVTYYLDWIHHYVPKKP
Procedure: as §28, §29, §30, §31

[3] = β-tryptase K1, apparent equilibrium constant of the first step of slow-binding
[4] = β-tryptase KI*, apparent equilibrium constant of the overall process

SMILES | uPA jump dilution result (uPA [1]) | uPA kapp (uPA [2]) | uPA mechanism of inhibition (uPA [2]) | Trypsin-3 jump dilution result (Trypsin-3) | β-tryptase kapp (β-tryptase) | β-tryptase mechanism of inhibition (β-tryptase) | Ki (β-tryptase; [3]) | Ki (β-tryptase; [4])
C#CCCCOC(=O)NC(Cc1ccc(NC(=N)N)cc1)P(=O)(Oc1ccc(Cl)cc1)Oc1ccc(Cl)cc1 (stereo not drawn) [36b] | Irrev. | 320000 ± 29000 M⁻¹ s⁻¹ | Irrev. | Rev. | 61 × 10^3 ± 6860 M^−1 s^−1 | reversible and Rev. | 340 ± 70 nM | 90 ± 10 nM
C[C@@H]1NC(=O)N[C@@H]1CCCCCC(=O)NCCOCCOCCOCCn1cc(CCCOC(=O)NC(c2ccc(NC(=N)N)cc2)P(=O)(Oc2ccccc2)Oc2ccccc2)nn1 (stereo partly drawn) [55b] | Irrev. | 77 ± 1 M⁻¹ s⁻¹ | Irrev. | Irrev. | 347 ± 19 M⁻¹ s⁻¹ | Irrev. |  | 
C[C@@H]1NC(=O)N[C@@H]1CCCCCC(=O)NCCOCCOCCOCCn1cc(CCCOC(=O)NC(c2ccc(NC(=N)N)cc2)P(=O)(Oc2ccc(Cl)cc2)Oc2ccc(Cl)cc2)nn1 (stereo partly drawn) [57b] | Irrev. | 25 × 10^2 ± 11 M^−1 s^−1 | Irrev. | Irrev. | 65 × 10^2 ± 1,203 M^−1 s^−1 | Irrev. |  | 
C[C@@H]1NC(=O)N[C@@H]1CCCCCC(=O)NCCOCCOCCOCCn1cc(CCCOC(=O)NC(Cc2ccc(NC(=N)N)cc2)P(=O)(Oc2ccc(Cl)cc2)Oc2ccc(Cl)cc2)nn1 (stereo partly drawn) [54b] | Irrev. | 230000 ± 36000 M⁻¹ s⁻¹ | Irrev. | Rev. |  | reversible slow-binding mechanism; also recorded: * ^d Rev | 130 ± 30 nM | 20 ± 1 nM
C#CCCCOC(=O)NC(c1ccc(NC(=N)N)cc1)P(=O)(Oc1ccc(NC(C)=O)cc1)Oc1ccc(NC(C)=O)cc1 (stereo not drawn) [38b, Pent-4-yn-1-yl ((bis(4-acetamidophenoxy)phosphoryl)(4-guanidinophenyl)methyl) carbamate] | Irrev. | 215 ± 7 M⁻¹ s⁻¹ | Irrev. | Irrev. | 20 × 10^2 ± 54 M^−1 s^−1 | Irrev. |  | 
